Measurements reported in patent US20100298141A1, “SUBSTITUTED PYRIDINE N-OXIDE HERBICIDES” (E. I. DU PONT DE NEMOURS AND COMPANY, priority 2007, published 2010).

What was measured:
morningglory = assay: Test C pre-/postemergence test; assay type: in vivo, Ipomoea coccinea
Text: Seeds of plant species selected from blackgrass (Alopecurus myosuroides), downy brome (Bromus tectorum), green foxtail (Setaria viridis), Italian ryegrass (Lolium multiflorum), wheat (Triticum aestivum), wild oat (Avena fatua), catchweed bedstraw (Galium aparine), Russian thistle (Salsola kali), […] (Cynodon dactylon), Surinam grass (Brachiaria decumbens), cocklebur (Xanthium strumarium), corn (Zea mays), crabgrass (Digitaria sanguinalis), woolly cupgrass (Eriochloa villosa), giant foxtail (Setaria faberii), Goosegrass (Eleusin indica), johnsongrass (Sorghum halepense), kochia (Kochia scoparia), lambsquarters (Chenopodium album), morningglory (Ipomoea coccinea), eastern black nightshade (Solanum ptycanthum), yellow nutsedge (Cyperus esculentus), pigweed (Amaranthus retroflexus), common ragweed (Ambrosia elation), soybean (Glycine max), common (oilseed) sunflower (Helianthus annuus), and velvetleaf (Abutilon theophrasti) were planted and treated preemergence with test chemicals formulated in a non-phytotoxic solvent mixture which included a surfactant. At the same time, plants selected from these crop and weed species and also winter barley (Hordeum vulgare), canarygrass (Phalaris minor), and chickweed (Stellaria media) were treated with postemergence applications of some of the test chemicals formulated in the same manner. Plants ranged in height from 2 to 18 cm (1- to 4-leaf stage) for postemergence treatments. […] At time of treatment, test pots were flooded to 3 cm above the soil surface, treated by application of test compounds directly to the paddy water, and then maintained at that water depth for the duration of the test. […] A dash (-) response means no test result.

rice = assay: Test C flooded paddy test; assay type: in vivo, Oryza sativa; conditions: Flood
Method in brief: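 Compound was added to standing water 3 cm above soil, flood maintained, and plants held in a greenhouse before visual scoring against controls at 13 to 15 days.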

[1] = 31 g ai/ha, Preemergence, scale 0 to 100
[2] = 62 g ai/ha, preemergence, scale 0 (no effect) to 100 (complete control)
[3] = preemergence, 125 g ai/ha, scale 0 (no effect) to 100 (complete control)
[4] = 31 g ai/ha, scale 0 to 100 (0 no effect, 100 complete control)
[5] = 62 g ai/ha, scale 0 to 100, 0 no effect, 100 complete control, 13 to 15 days
[6] = 125 g ai/ha, scale 0 to 100, 0 no effect, 100 complete control, 13 to 15 days
[7] = 250 g ai/ha, scale 0 to 100 (0 no effect, 100 complete control)
[8] = 62 g ai/ha, Preemergence, scale 0 to 100
[9] = 125 g ai/ha, preemergence, scale 0 (no effect) to 100 (complete control)
[10] = Preemergence, 31 g ai/ha, scale 0 to 100 (0 no effect, 100 complete control)
[11] = preemergence, 250 g ai/ha, scale 0 (no effect) to 100 (complete control)
[12] = 62 g ai/ha, scale 0 to 100 (0 no effect, 100 complete control)
[13] = 250 g ai/ha, scale 0 to 100, 0 no effect, 100 complete control, 13 to 15 days
[14] = Postemergence, 62 g ai/ha, scale 0 to 100, 0 no effect, 100 complete control
[15] = Postemergence, 125 g ai/ha, scale 0 to 100, 0 no effect, 100 complete control
[16] = Postemergence, 250 g ai/ha, scale 0 to 100, 0 no effect, 100 complete control

Cn1nc(C(F)(F)F)c(C[S+]([O-])c2ccc(Br)c[n+]2[O-])c1OC(F)F (racemic) [Compound 16]
Morningglory plant response rating (morningglory; [1]): 0
Morningglory plant response rating (morningglory; [2]): 10
Plant response rating (0 to 100), Morningglory (morningglory; Preemergence, 250 g ai/ha): 100
Morningglory plant response rating (morningglory; [3]): 95
Plant response rating, Rice (rice; [4]): 0
Plant response rating, Rice (rice; [5]): 0
Plant response rating, Rice (rice; [6]): 0
Plant response rating, Rice (rice; [7]): 0

CCc1cc[n+]([O-])c(S(=O)(=O)Cc2c(C(F)(F)F)nn(C)c2OC(F)F)c1 [Compound 102]
Morningglory plant response rating (morningglory; [8]): 85
Morningglory plant response rating (morningglory; [9]): 100
Plant response rating, Morningglory (morningglory; [10]): 65
Morningglory plant response rating (morningglory; [11]): 100
Plant response rating, Rice (rice; [12]): 0
Plant response rating, Rice (rice; [13]): 20

Cn1nc(C(F)(F)F)c(C[S+]([O-])c2cc(Cl)cc[n+]2[O-])c1Cl (racemic) [Compound 39]
Morningglory plant response rating (morningglory; [8]): 80
Morningglory plant response rating (morningglory; [9]): 100
Plant response rating, Morningglory (morningglory; [10]): 30
Morningglory plant response rating (morningglory; [11]): 100
Plant response rating, Rice (rice; [4]): 0
Plant response rating, Rice (rice; [5]): 10
Plant response rating, Rice (rice; [6]): 40
Plant response rating, Rice (rice; [13]): 65

[O-][n+]1cc(Cl)ccc1[S+]([O-])Cc1c(C(F)(F)F)nn(CC(F)(F)F)c1Cl (stereo not drawn) [Compound 47]
Morningglory plant response rating (morningglory; [8]): 100
Morningglory plant response rating (morningglory; [9]): 100
Plant response rating (0 to 100), Morningglory (morningglory; Postemergence, 31 g ai/ha): 0
Plant response rating, Morningglory (morningglory; [14]): 0
Plant response rating, Morningglory (morningglory; [15]): 0
Plant response rating, Morningglory (morningglory; [16]): 60
Plant response rating, Morningglory (morningglory; [10]): 100
Morningglory plant response rating (morningglory; [11]): 100
Plant response rating, Rice (rice; [5]): 55
Plant response rating, Rice (rice; [13]): 65

Cn1nc(C(F)(F)C(F)(F)F)c(C[S+]([O-])c2ccc(Cl)c[n+]2[O-])c1OCC(F)(F)F (stereo not drawn) [Compound 92]
Morningglory plant response rating (morningglory; [8]): 80
Morningglory plant response rating (morningglory; [9]): 85
Plant response rating, Morningglory (morningglory; [10]): 0
Morningglory plant response rating (morningglory; [11]): 100
Plant response rating, Rice (rice; [12]): 30
Plant response rating, Rice (rice; [13]): 50

Cn1nc(C(F)(F)F)c(C(Cl)S(=O)(=O)c2cccc[n+]2[O-])c1OC(F)F (stereo not drawn) [Compound 51]
Morningglory plant response rating (morningglory; [8]): 100
Morningglory plant response rating (morningglory; [9]): 100
Plant response rating, Morningglory (morningglory; [10]): 100
Morningglory plant response rating (morningglory; [11]): 100
Plant response rating, Rice (rice; [5]): 25
Plant response rating, Rice (rice; [13]): 55

Cn1nc(C(F)(F)F)c(C[S+]([O-])c2cc(Br)cc[n+]2[O-])c1Cl (racemic) [Compound 35]
Morningglory plant response rating (morningglory; [8]): 0
Morningglory plant response rating (morningglory; [9]): 80
Plant response rating, Morningglory (morningglory; [10]): 0
Morningglory plant response rating (morningglory; [11]): 85
Plant response rating, Rice (rice; [4]): 0
Plant response rating, Rice (rice; [5]): 0
Plant response rating, Rice (rice; [6]): 0
Plant response rating, Rice (rice; [13]): 20

Cn1nc(C(F)(F)F)c(CS(=O)(=O)c2ccc(Cl)c[n+]2[O-])c1OCC(F)(F)F [Compound 73]
Morningglory plant response rating (morningglory; [8]): 0
Morningglory plant response rating (morningglory; [9]): 0
Plant response rating, Morningglory (morningglory; [10]): 0
Morningglory plant response rating (morningglory; [11]): 0
Plant response rating, Rice (rice; [12]): 0
Plant response rating, Rice (rice; [13]): 20

Cc1cc[n+]([O-])c(S(=O)(=O)C(C)c2c(C(F)(F)F)nn(C)c2Cl)c1 (racemic) [Compound 14]
Morningglory plant response rating (morningglory; [1]): 5
Morningglory plant response rating (morningglory; [2]): 98
Plant response rating (0 to 100), Morningglory (morningglory; Preemergence, 250 g ai/ha): 100
Morningglory plant response rating (morningglory; [3]): 100
Plant response rating, Rice (rice; [4]): 0
Plant response rating, Rice (rice; [5]): 0
Plant response rating, Rice (rice; [6]): 60
Plant response rating, Rice (rice; [7]): 70

Cn1nc(C(F)(F)F)c(CS(=O)(=O)c2ccc(Cl)c[n+]2[O-])c1OC(F)F [Compound 7]
Morningglory plant response rating (morningglory; [1]): 0
Morningglory plant response rating (morningglory; [2]): 0
Plant response rating (0 to 100), Morningglory (morningglory; Preemergence, 250 g ai/ha): 0
Morningglory plant response rating (morningglory; [3]): 0
Plant response rating, Rice (rice; [4]): 0
Plant response rating, Rice (rice; [5]): 0
Plant response rating, Rice (rice; [6]): 15
Plant response rating, Rice (rice; [7]): 15

Cn1nc(C(F)(F)F)c(CS(=O)(=O)c2cc(C(C)(C)C)cc[n+]2[O-])c1OC(F)F [Compound 25]
Morningglory plant response rating (morningglory; [8]): 50
Plant response rating, Morningglory (morningglory; [10]): 0
Plant response rating, Rice (rice; [4]): 0
Plant response rating, Rice (rice; [5]): 0
Plant response rating, Rice (rice; [6]): 65
Plant response rating, Rice (rice; [7]): 75

Cn1nc(C(F)(F)F)c(C[S+]([O-])c2cc(C(C)(C)C)cc[n+]2[O-])c1OC(F)F (racemic) [Compound 24]
Morningglory plant response rating (morningglory; [8]): 80
Plant response rating, Morningglory (morningglory; [10]): 70
Plant response rating, Rice (rice; [4]): 0
Plant response rating, Rice (rice; [5]): 30
Plant response rating, Rice (rice; [6]): 45
Plant response rating, Rice (rice; [7]): 80

CC(c1c(C(F)(F)F)nn(C)c1Cl)S(=O)(=O)c1cccc[n+]1[O-] (stereo not drawn) [Compound 10]
Morningglory plant response rating (morningglory; [1]): 85
Morningglory plant response rating (morningglory; [2]): 100
Plant response rating (0 to 100), Morningglory (morningglory; Preemergence, 250 g ai/ha): 100
Morningglory plant response rating (morningglory; [3]): 100
Plant response rating, Rice (rice; [4]): 0
Plant response rating, Rice (rice; [5]): 25
Plant response rating, Rice (rice; [6]): 70
Plant response rating, Rice (rice; [7]): 80

CC(c1c(C(F)(F)F)nn(C)c1OC(F)F)S(=O)(=O)c1cc(C(C)(C)C)cc[n+]1[O-] (racemic) [Compound 26]
Morningglory plant response rating (morningglory; [8]): 80
Plant response rating, Rice (rice; [4]): 0
Plant response rating, Rice (rice; [5]): 0
Plant response rating, Rice (rice; [6]): 0
Plant response rating, Rice (rice; [7]): 80

Cn1nc(C(F)(F)F)c(C[S+]([O-])c2cccc[n+]2[O-])c1OCC(F)F (stereo not drawn) [Compound 75]
Morningglory plant response rating (morningglory; [8]): 100
Morningglory plant response rating (morningglory; [9]): 100
Plant response rating, Morningglory (morningglory; [10]): 30
Morningglory plant response rating (morningglory; [11]): 100
Plant response rating, Rice (rice; [12]): 0
Plant response rating, Rice (rice; [13]): 60

CC(C)c1cc[n+]([O-])c([S+]([O-])Cc2c(C(F)(F)F)nn(C)c2OC(F)F)c1 (stereo not drawn) [Compound 109]
Morningglory plant response rating (morningglory; [8]): 100
Morningglory plant response rating (morningglory; [9]): 100
Plant response rating, Morningglory (morningglory; [10]): 80
Morningglory plant response rating (morningglory; [11]): 100
Plant response rating, Rice (rice; [4]): 0
Plant response rating, Rice (rice; [12]): 0
Plant response rating, Rice (rice; [6]): 0
Plant response rating, Rice (rice; [13]): 20

Cn1nc(C(F)(F)F)c(CS(=O)(=O)c2ccc(Cl)c[n+]2[O-])c1Cl [Compound 18]
Morningglory plant response rating (morningglory; [8]): 0
Plant response rating, Morningglory (morningglory; [10]): 0
Plant response rating, Rice (rice; [4]): 30
Plant response rating, Rice (rice; [5]): 40
Plant response rating, Rice (rice; [6]): 80
Plant response rating, Rice (rice; [7]): 80

CCn1nc(C(F)(F)F)c(C[S+]([O-])c2cccc[n+]2[O-])c1OCC(F)(F)F (racemic) [Compound 65]
Morningglory plant response rating (morningglory; [8]): 0
Plant response rating (0 to 100), Morningglory (morningglory; Postemergence, 31 g ai/ha): 0
Plant response rating, Morningglory (morningglory; [14]): 0
Plant response rating, Morningglory (morningglory; [15]): 0
Plant response rating, Morningglory (morningglory; [16]): 0
Plant response rating, Morningglory (morningglory; [10]): 0
Morningglory plant response rating (morningglory; [11]): 75
Plant response rating, Rice (rice; [12]): 0
Plant response rating, Rice (rice; [13]): 45

Cn1nc(C(F)(F)F)c(C[S+]([O-])c2cc(C(F)(F)F)cc[n+]2[O-])c1Cl (racemic) [Compound 34]
Plant response rating, Rice (rice; [4]): 0
Plant response rating, Rice (rice; [5]): 0
Plant response rating, Rice (rice; [6]): 0
Plant response rating, Rice (rice; [13]): 40
